This is an account of results in article PMC6767236, “Selective Cannabinoid 2 Receptor Agonists as Potential Therapeutic Drugs for the Treatment of Endotoxin-Induced Uveitis” (Molecules, 2019).

Molecules are shown by their SMILES. pEC50, pIC50: −log10 of the molar value. Entries after “also recorded” stand apart in the source; their conditions may differ. Where two headings read alike, the source gives them in different places.

One data set concerns the target mouse CB2R (Mus musculus, UniProt P47936). As to the kind of experiment: cAMP assay, mouse CB2R (mouse spleen homogenate). In kind it is biochemical. The protocol:
The effect of ligands on the forskolin-stimulated accumulation of cAMP was determined using the LANCE ULTRA cAMP kit as per the manufacturer’s instruction (Perkin-Elmer Life Sciences, Boston, MA, USA).
For mouse CB2R cAMP assays, mouse spleen was resuspended in 50 mM of Tris-HCl (pH 7.4), then homogenized with a Potter homogenizer and centrifuged at 1000× g for 10 min. The supernatants were incubated for 30 min with 1-methyl-3-isobutylxanthine (IBMX), then forskolin was added in the presence or absence of ligands. The supernatants were incubated for 30 min in ATP Regeneration Buffer (50 mM HEPES, pH 7.4, 10 mM phosphocreatine, 10 units/mL creatine phosphokinase, 10 μM GTP, 200 μM ATP, 10 mM MgCl2, 250 μM IBMX), and the reaction was stopped by adding lysis buffer. Time-resolved fluorescence was measured with a Victor V Multilabel counter (Perkin-Elmer Life Sciences, Boston, MA, USA).
For orientation: cAMP levels reflect the balance of adenylyl cyclase and phosphodiesterase activity.

The conditions of data set [1]: * previously published; cited from earlier work.
For data set [2] the following is noted: phosphate buffer pH 6.5; * previously published; cited from earlier work.
For the next data set, the target named is CYP2D6 (Homo sapiens, UniProt P10635). Description: Cytochrome P450 inhibition assay, CYP2D6. In kind it is in vitro ADME. Particulars: read-out: IC50 CYP2D6.
CYP2D6, sequence (P10635 whole entry): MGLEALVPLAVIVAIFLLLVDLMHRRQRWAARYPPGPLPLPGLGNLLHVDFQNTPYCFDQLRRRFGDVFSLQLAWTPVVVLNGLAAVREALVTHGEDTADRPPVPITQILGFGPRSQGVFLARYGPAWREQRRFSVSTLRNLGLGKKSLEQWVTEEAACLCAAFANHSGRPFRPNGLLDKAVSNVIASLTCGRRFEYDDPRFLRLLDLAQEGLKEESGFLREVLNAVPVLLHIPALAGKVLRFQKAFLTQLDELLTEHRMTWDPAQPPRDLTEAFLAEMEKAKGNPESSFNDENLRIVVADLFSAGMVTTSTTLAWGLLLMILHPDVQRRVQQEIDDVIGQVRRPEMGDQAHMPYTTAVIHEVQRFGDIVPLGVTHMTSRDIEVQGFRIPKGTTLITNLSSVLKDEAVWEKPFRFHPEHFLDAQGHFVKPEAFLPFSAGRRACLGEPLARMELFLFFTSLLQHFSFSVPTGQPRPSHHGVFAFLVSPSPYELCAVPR
The subject of data set [3] is leukocyte-endothelial interactions in the iridial microcirculation. Description: Endotoxin-induced uveitis (EIU), intravital microscopy of iridial microcirculation, WT mice. Particulars: 6 h after intravitreal LPS. Format: in vivo, BALB/c mice. The protocol:
EIU was induced in BALB/c mice using an intravitreal injection of LPS (2 μL; 125 ng/μL; E. coli 0111:B4 L084M4118V; Sigma-Aldrich, Oakville, ON, Canada) in saline,. Animals were anesthetized with isoflurane (4% induction, 2% maintenance), and were injected intravitreally through the pars plana with sterile saline (control) or LPS solution using a 30G needle and Hamilton syringe (Hamilton Company, Reno, NV, USA) with the assistance of a WILD M37 dissecting microscope (Leitz Canada, Kitchener, ON, Canada). The puncture wound was glued shut with 3M Vetbond Tissue Adhesive (3M Animal Products, St. Paul, MN, USA), and animals were allowed to recover.
IVM was conducted as previously described in Toguri et al. (2014). The iridial microcirculation was imaged 6 h after induction of EIU. Animals were anesthetized with pentobarbital (i.p., 54 mg/kg). Fifteen minutes before initiating IVM, 0.05% Rhodamine 6G (1.5 mL/kg; Sigma-Aldrich) was injected intravenously (i.v.) to visualize leukocytes within the vasculature, while 5% fluorescein isothiocyanate (FITC) conjugated albumin (i.v., 1 mL/kg; Sigma-Aldrich) was used to visualize blood flow. The iridial microcirculation was observed using an Olympus OV100 Small Animal Imaging System (Olympus, Tokyo, Japan), which contains an MT-20 light source, fluorescence excitation from a xenon lamp (150 W) and an excitation filter for rhodamine-6G (excitation 515–560 nm, emission 590 nm). Images were captured in real-time by a black and white DP70 CCD C-mount camera and digitally recorded using HCImage software (Hamamatsu, Herrsching, Germany).
During IVM animals were placed on a heating pad in a stereotactic frame, and Tear-Gel® (Novartis Pharmaceuticals Canada Inc., Dorval, QC, Canada) was applied to their cornea. The iris was divided into four equal quadrants by drawing two superficial lines on the cornea, lengthwise and widthwise. IVM was carried out in each of these quadrants. Two to four videos of each quadrant were recorded for 30 s each. Videos were analyzed off-line without knowledge of the treatment groups. […] Using ImageJ software (National Institute of Health, Bethesda, MD, USA) the number of adherent leukocytes within each vessel segment was calculated by measuring the diameter and length of vessel segment studied, assuming a cylindrical geometry of blood vessels. Adherent leukocytes were expressed as number of cells per mm^2 of endothelial surface. Rolling leukocytes were classified as cells that moved along the endothelium and crossed a predetermined cross-sectional line of the venule. The number of rolling leukocytes was counted for 30 s and used to calculate the number of rolling leukocytes per min. IVM was conducted 6 h after induction of EIU.
RO6871304, RO6871085, or RO6851228 were applied topically on the left eye (1.5% w/v; 5 μL/animal)) directly after injection of LPS in the same eye. Control animals received vehicle (Tocrisolve) (5 μL/animal) only. HU910 was dissolved for i.v. administration in mixed micelles.

The conditions of data set [4]: cited from earlier work.
Data set [5] can be described thus: Chemical stability (aqueous stability assay ASTA). Format: physicochemical. Particulars: aqueous buffer, 37 °C. The protocol: Chemical Stability (= Aqueous Stability Assay ASTA)
ASTA is a fully automated assay to determine the 2 h stability of a molecule in aqueous conditions, over the pH range 1–10. Five different pH values are used and the solutions are heated at 37 °C. A compound is classified unstable if, after 2 h, less than 90% of the initial concentration can be found. Samples are first prepared on incubation plates and shaken initially for 10 min at 37 °C.
Solutions are then transferred to a filter plate (Millipore MSGVN2250, pore size 0.22 µm) and filtrated into V-bottom plates (from ABGene, AB-0800) that are heat-sealed prior to HPLC analysis. The procedure is performed a second time. However, the incubation time at 37 °C for the second plate is increased by 2 h. Samples are taken at time point 0 and 2 h and analyzed by HPLC. […]

A further data set has as its target CYP2C9 (Homo sapiens, UniProt P11712). As to the kind of experiment: Cytochrome P450 inhibition assay, CYP2C9. In kind it is in vitro ADME. Particulars: read-out: IC50 CYP2C9.

mouse CB2R, sequence (P47936 whole entry): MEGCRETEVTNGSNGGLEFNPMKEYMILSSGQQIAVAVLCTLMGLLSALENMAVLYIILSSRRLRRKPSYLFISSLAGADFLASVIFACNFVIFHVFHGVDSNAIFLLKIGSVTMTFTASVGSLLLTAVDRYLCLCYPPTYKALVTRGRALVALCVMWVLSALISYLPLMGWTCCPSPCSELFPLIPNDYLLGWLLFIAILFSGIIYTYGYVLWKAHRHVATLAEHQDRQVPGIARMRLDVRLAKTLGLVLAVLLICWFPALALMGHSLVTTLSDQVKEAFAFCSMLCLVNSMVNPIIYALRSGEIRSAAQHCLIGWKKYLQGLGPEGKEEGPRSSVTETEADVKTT
CYP2C9, sequence (P11712 whole entry): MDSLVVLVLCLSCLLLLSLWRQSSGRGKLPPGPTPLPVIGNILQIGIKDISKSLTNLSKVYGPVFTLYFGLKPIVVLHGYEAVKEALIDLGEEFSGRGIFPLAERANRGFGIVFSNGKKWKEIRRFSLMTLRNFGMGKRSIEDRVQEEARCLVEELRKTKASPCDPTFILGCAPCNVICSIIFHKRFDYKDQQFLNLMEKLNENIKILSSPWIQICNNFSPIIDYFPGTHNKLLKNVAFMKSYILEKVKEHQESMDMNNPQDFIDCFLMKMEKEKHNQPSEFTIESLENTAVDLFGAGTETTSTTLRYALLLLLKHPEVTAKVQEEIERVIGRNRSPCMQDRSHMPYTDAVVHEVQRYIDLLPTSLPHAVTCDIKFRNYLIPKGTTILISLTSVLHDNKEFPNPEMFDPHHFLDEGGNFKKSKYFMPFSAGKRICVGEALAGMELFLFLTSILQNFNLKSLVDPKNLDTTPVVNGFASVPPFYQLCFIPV

Take `CC(C)(C)c1nc(N2CC[C@H](O)C2)c2nnn(Cc3nnnn3C3CC3)c2n1` [RO6871304, (3S)-1-{5-tert-butyl-3-[(1-cyclopropyl-1H-tetrazol-5-yl)methyl]-3H-[1,2, 3]triazolo[4,5-d]pyrimidin-7-yl}pyrrolidin-3-ol]: the “mouse CB2R: cAMP efficacy” value on mouse CB2R is 101%. The pEC50 (commonly the negative decadic logarithm of the EC50, by convention in mol/L) at mouse CB2R (read-out: mouse CB2R: cAMP EC50) is 9.30. The “LogD (at pH 7.4)” value in data set [1] is 2.78. The “Kinetic Solubility” value in data set [2] is 162 ± 2 µg/mL. The pIC50 – broadly, −log10 of the IC50, conventionally taken in molar units – at CYP2D6 is less than 4.30; at CYP2C9 it was 4.80. Besides, in data set [3] (LPS + topical 1.5% w/v, mean ± SD, n = 6), the “Rolling leukocytes per min” value is on record as 0.05 ± 0.07 per min. In addition, the “adherent leukocytes in the iridial microcirculation” value in data set [3] (WT mice, topical 1.5% w/v (5 µL/animal), vs LPS + vehicle) is on record as “significantly attenuated; also recorded: most efficacious”. In addition, in data set [4] (mouse hepatocytes, * previously published), the “Hepatocyte Clearance mouse” value is listed as 140 μL/min/Mio cells. The “clearance in mouse hepatocytes (class in words)” value in data set [4] (underlying data previously published) is listed as “high”. Further, the amount remaining – broadly, what is left of the initial amount, in per cent – at 2 h in data set [5] (pH 1, 2 h, read-out: Chemical Stability in Aqueous Buffer at pH 1 (% remaining after 2 h at 37 °C)) was 100%; in data set [5] (pH 4, 2 h, read-out: Chemical Stability in Aqueous Buffer at pH 4 (% remaining after 2 h at 37 °C)), 100%; in data set [5] (pH 6.5, 2 h, read-out: Chemical Stability in Aqueous Buffer at pH 6.5 (% remaining after 2 h at 37 °C)), 100%; in data set [5] (pH 8, 2 h, read-out: Chemical Stability in Aqueous Buffer at pH 8 (% remaining after 2 h at 37 °C)) it was 99%; in data set [5] (pH 10, 2 h, read-out: Chemical Stability in Aqueous Buffer at pH 10 (% remaining after 2 h at 37 °C)), 100%.
